Values after ≈ are worked out from the molar mass of the structure shown.
How the values were obtained:
Candida species = assay: Broth microdilution MIC determination (NCCLS M27-A adapted), yeasts
Procedure: (§1) Test compound preparation: The test article was prepared as 100× stock solutions in DMSO, with concentrations ranging from 3.2 mg/ml to 0.0625 mg/ml (a two-fold dilution series over 10 points). The first dilution (3.2 mg/ml) was prepared by resuspending 0.5 mg of each test article in 156.25 μl of DMSO.
(§2) Inoculum preparation: For fungal strains, the inoculum was prepared as follows. From an overnight culture in Yeast Media broth, cell density was adjusted in 0.85% saline to 0.5 McFarland. This procedure yielded a stock suspension of about 5×10^6 cells/ml. Following thorough vortexing, a working suspension was prepared by diluting the stock 1:50 in RPMI 1640, and then further diluting it 1:20 with RPMI 1640 to obtain the 2× test inoculum (about 5×10^3 cells/ml). For filamentous fungi, the inoculum was prepared as follows. From a spore suspension kept at 4° C., an appropriate dilution in 0.85% saline was made to obtain a final optical density 600 between 0.09-0.11. A working suspension was then prepared by diluting the spore suspension 50 times in RPMI to obtain the 2× test inoculum (about 1×10^5 CFU/ml).
(§3) MIC Determination: The 100× test article solutions were diluted 50 times in RPMI 1640, MH or BHI media and dispensed in a 96 well plate, one concentration per column, 10 columns in total. The 11th column contained RPMI 1640 with 1% DMSO with cells, the 12th column contained 100 μl of RPMI 1640 alone.
(§4) 50 μl of the final cell dilution (yeast, filamentous fungi or bacteria) of each indicator strain was added to each corresponding well of the microplate containing 50 μl of diluted drug or media alone. Assay plates were incubated at 35° C. for up to 72 hrs. MIC readings were determined at 24 and 48 hrs for the Candida and Aspergillus species, and at 48 and 72 hrs for Cryptococcus neoformans. MIC readout for each indicator was determined as the lowest concentration of test compound resulting in total absence of growth.

C. albicans SC5314 = assay: Mouse model of disseminated candidiasis, survival; format: in vivo; settings: CD-1 mice infected i.v. with C. albicans SC5314; 1 or 3 mg/kg i.p. once daily for 4 days
Procedure: Compound 2(a) was provided as a dry powder with an estimated purity of 95+%. Fungizone (amphotericin B desoxycholate, to be used as a comparitor), was also provided as a dry powder with an estimated purity of 95+%. The compound 2(a) and Fungizone were stored as dry powders at −80° C. until the day of administration.
Female mice (species Mus musculus, strain CD-1, Charles River) with body weight range of 22-24 g were used in the study. […] All animal experiments were performed at the Step-Justine Hospital (Montreal, Quebec) according to ethical guidelines of animal experimentation of the ethical committee of the hospital. During the study, dead or apparently sick animals were promptly removed and sick mice were euthanized upon removal from the cage.
The animals were maintained in rooms under controlled conditions of temperature (23±2° C.), humidity (45±5%), photoperiodicity (12 hrs light/12 hrs dark) and air exchange. The animals were housed in polycarbonate cages (4/single cage) equipped to provide food and water. Sterile wood shavings were used for animal bedding and the bedding was replaced every other day. […]
The treatment regimen was repeated once daily for a total of 4 days. […] Moribund animals were scored as non-survivors and euthanized by CO2 inhalation. […]

Aspergillus species = assay: Broth microdilution MIC determination, filamentous fungi
Procedure: as §1, §2, §3, §4

[1] = test system: 60 different human tumor cell lines; assay: NCI in vitro antiproliferative screen (SRB), GI50; format: cell-based
Procedure: In vitro antipoliferative study of Compound 2a was performed by the National Cancer Institute (National Institutes of Health, Bethesda, Md., USA) against a panel of cancer cell lines in order to determine the concentrations needed to obtain a 50% inhibition of cell proliferation (IC50). The operation of this unique screen utilizes 60 different human tumor cell lines, representing leukemia, melanoma, and cancers of the lung, colon, brain, ovary, breast prostate and kidney. Compound 2(a) was provided as a lyophilized powder with an estimated purity of 90+%. The compound was stored at −20° C. until day of use.
The human tumor cell lines of the cancer-screening panel were grown in RPMI 1640 medium containing 5% fetal bovine serum and 2 mM L-glutamine. For a typical screening experiment, cells were inoculated into 96 well microtiter plates in 100 μl at plating densities ranging from 5000 to 40,000 cells/well depending on the doubling time of individual cell lines (Table 8). […]
Following drug addition, the plates were incubated for an additional 48 hours at 37° C., 5% CO2, 95% air, and 100% relative humidity. […] Bound stain was subsequently solubilized with 10 mM trizma base, and the absorbance was read on an automated plate reader at a wavelength of 515 nm. […]
The growth inhibitory power of compound 2(a) was measured by NCl utilizing the GI50 value, rather than the classical IC50 value. […]

A. flavus - ATCC 204304 = assay: Disk diffusion assay, minimum effective concentration (MEC) and zone of inhibition (ZOI); format: cell-based, Aspergillus flavus
[2] = test system: A. fumigatus - LSPQ 204305; assay: as above; format: cell-based, Aspergillus fumigatus

CC(C=CCCC=CC=CC=CC=CC(=O)NC1=C(O)CCC1=O)C(O)C(C)C(O)C=CC=CC=CC=CC=CCC(OC1OC(C)C(O)C(O)C1O)C(C)C(=O)CC(O)CC(O)CC(O)C=CCC(O)CC(O)CC(O)CC(O)C=CCC(O)CC(O)CCCN (stereo not shown) [Compound 2(a), 56-Amino-15,17,33,35,37,41,43,45,47,51,53-undecahydroxy-14,16,30-trimethyl-31-oxo-29-(3,4,5-trihydroxy-6-methyl-tetrahydro-pyran-2-yloxy)-hexapentaconta-2,4,6,8,12,18,20,22,24,26,38,48-dodecaenoic acid (2-hydroxy-5-oxo-cyclopent-1-enyl)-amide]
MIC (Candida species; 24 h, Candida albicans ATCC 10231, 24 hrs): 4 µg/mL (≈ 3.08 µM) | MIC (Candida species; 24 h, Candida glabrata LSPQ 0250, 24 hrs): 4 µg/mL (≈ 3.08 µM) | MIC (Candida species; 24 h, Candida krusei LSPQ 0309, 24 hrs): 8 µg/mL (≈ 6.17 µM) | MIC (Candida species; 24 h, Candida lusitaniae ATCC 200953, 24 hrs): 4 µg/mL (≈ 3.08 µM) | MIC (Candida species; 48 h, Candida albicans ATCC 10231, 48 hrs): 4 µg/mL (≈ 3.08 µM) | MIC (Candida species; 48 h, Candida glabrata LSPQ 0250, 48 hrs): 8 µg/mL (≈ 6.17 µM) | MIC (Candida species; 48 h, Candida krusei LSPQ 0309, 48 hrs): 8 µg/mL (≈ 6.17 µM) | MIC (Candida species; 48 h, Candida lusitaniae ATCC 200953, 48 hrs): 4 µg/mL (≈ 3.08 µM) | increase of median survival time of infected mice (C. albicans SC5314): 4 fold | MIC (Aspergillus species; 24 h, Aspergillus flavus ATCC 204304, 24 hrs): 4 µg/mL (≈ 3.08 µM) | MIC (Aspergillus species; 24 h, Aspergillus fumigatus ATCC 204305, 24 hrs): 16 µg/mL (≈ 12.3 µM) | MIC (Aspergillus species; 48 h, Aspergillus flavus ATCC 204304, 48 hrs): 8 µg/mL (≈ 6.17 µM) | MIC (Aspergillus species; 48 h, Aspergillus fumigatus ATCC 204305, 48 hrs): 16 µg/mL (≈ 12.3 µM) | GI50 level ([1]; SN12C/renal carcinoma, HOP92/non-small cell lung carcinoma, HCC2998/colon carcinoma): nanomolar or picomolar level | anticancer activity against human tumor cell lines ([1]; all cell lines assayed in the NCI screening panel): effective against all the human tumor cell lines | ZOI (zone of inhibition of fungal growth at the MEC) (A. flavus - ATCC 204304; Aspergillus flavus, at MEC, 24 hours of incubation): 2.7 mm | antifungal activity against Aspergillus flavus (A. flavus - ATCC 204304; ZOI after 24 hours at 35° C.): active | ZOI (zone of inhibition of fungal growth at the MEC) ([2]; Aspergillus fumigatus, at MEC, 24 hours of incubation): 2.7 mm | antifungal activity against Aspergillus fumigatus ([2]; ZOI after 24 hours at 35° C.): active

Reference: patent publication US7416868B2, “Polyene polyketides, processes for their production and their use as a pharmaceutical” (Thallion Pharmaceuticals, Inc., priority 2003, dated 2008)
